Assays:
[1] = system: H889 and H82 cells; experiment: Sensitivity of Talazoparib-resistant small cell lung cancer cells; format: cell-based
[2] = system: UWB1, A673, Fadu, H2058, H1048, MDA-MB-468 cells; experiment: Cytotoxicity in cancer cell lines with different genetic background (cell titer glo); format: cell-based; conditions: 1 μM for 96 hours
Excerpt: Cells were then subjected to cell titer glo analysis. Data represent mean±SEM.

SMILES	sensitivity of H889 and H82 cells [1]	sensitivity of cell lines (UWB1, A673, Fadu, H2058, H1048, MDA-MB-468) [2]
Cn1ncnc1[C@H]1c2n[nH]c(=O)c3cc(F)cc(c23)N[C@@H]1c1ccc(F)cc1 [Talazoparib, talazoparib]	resistant	
O=C(c1cc(Cc2n[nH]c(=O)c3ccccc23)ccc1F)N1CCN(C(=O)C2CC2)CC1 [Olaparib, olaparib]		different degrees of sensitivity

— patent US20240336622A1 (The Board of Regents of The University of Texas System, priority 2021, published 2024)
